Like-named read-outs stand apart in the source and are kept apart here.
What was measured:
adenosine A2A receptor = biological target: T1, adenosine A2A receptor (Rattus norvegicus, UniProt P30543); test: Adenosine A2A receptor binding test (3H-CGS 21680 binding); details: for inhibition at 0.1 µM: read-out: A2A Receptor inhibition rate (%) at 10^−7 mol/L
T1 construct: from tissue; host or cells: rat corpus striatum membrane preparation

[1] = test system: CGS 21680-induced catalepsy; test: Activity on CGS 21680-induced catalepsy; type: in vivo, mice; details: for Total score: total catalepsy score of 10 mice (maximum 50 points; 40 points or less = positive), one hour after administration; for inhibition in vivo at 10 mg/kg: Mus musculus, po, read-out: Remission ratio (%)
Method in brief: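 Male ddY mice, 5 weeks old, ten per group, were dosed orally with compound at 10 mg/kg in 0.3% Tween 80 water, 30 min before CGS 21680 (10 μg/20 μL) was injected into the cerebral ventricle. Catalepsy was scored 1 h after compound dosing by placing forelimbs or hindlimbs on a 4.5 cm stand.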

male ddY mice = test: Forced swimming method (measurement of immobility time); type: in vivo; details: orally administered, 10 mg/kg, one hour before the test; versus solvent group (Steel-test)
Method: Ten male ddY mice (21 to 26 g in body weight, Japan SLC) per group were used as test animals. During the preliminary feeding period, the animals were bred to be allowed to freely have feed (CRF-1; Oriental Yeast Co., Ltd, Tokyo) and water (tap water) in an animal room at a room temperature for 23±1° C. and a humidity of 55±5%.
Animals showing abnormal reactions in terms of spontaneous activity, myotonia, eyesight and the like were previously excluded. Each test compound was suspended in a 0.3% Tween 80 solution and orally administered one hour before the test. In the negative control group, 10 mL/kg of a 0.3% Tween 80 solution alone was orally administered. The immobility time was measured according to the Porsolt method [Arch. Int. Pharmacodyn., vol. 229, pp. 327-336 (1977)]. Namely, a cylindrical transparent acrylic water tank (10 cm in diameter and 25 cm in height) was filled with water at a temperature between 23±1° C. to a height of 9 cm, and the mice were forced to swim for 6 minutes. When the mice are put into water, they immediately start to swim trying to escape from the tank, but the motion gradually decreases 1 to 2 minutes thereafter. […] In order to reduce the effects of daily rhythm, the test was carried out using 5 of the 10 animals per group in the morning, and the remaining 5 animals in the afternoon. The immobility time was measured by observing 2 animals at the same time without telling the observers distinctions about the control group administered with the solvent alone and doses of the test compounds. Statistical analysis of the results was carried out by a multiple comparison Steel-test between the solvent-administered group and the test compound-administered group.

[2] = test system: common marmoset treated with 1-methyl-4-phenyl-1,2,3,6-tetrahydropyridine (MPTP); test: Parkinson's disease model, MPTP-treated common marmoset; type: in vivo; details: symptom score and spontaneous locomotor activity versus solvent-administered group
Method: Parkinson's disease is a disease based on the degeneration and cell death of the nigrostriatal dopaminergic neurons. […] These MPTP-treated primates are known as a model of Parkinson's disease [Proceedings of the National Academy of Science USA, vol. 80, p. 4546 (1983)]. […] 57, p. 37 (1985)].
The test was carried out using 4 female and male common marmosets of 2 to 3 year age (300 to 375 g in body weight, Japan CLEA) per group. MPTP (produced by RBI Co.) was dissolved in physiological saline for injection (produced by Otsuka Pharmaceutical Co., Ltd.), and hypodermically administered to the common marmosets once a day for 5 days in a dose of 2.0 mg/kg. Six weeks or more after the administration, animals showing chronic symptoms of Parkinson's disease were used in the test. Each test compound was used by suspending it in an aqueous solution containing 0.3% Tween 80 and 10% sucrose. Also, a solution containing no test compound was used as a control. One hour before the administration of the test compound, the animals to be tested were put into an observation cage (provided with a spontaneous locomotor activity measuring apparatus) to adapt them to the environment. The symptoms of Parkinson's disease were observed from a one-way see through window at intervals of 30 minutes for 8 hours to score the motor disability. The spontaneous locomotor activity was measured at intervals of 30 minutes for 12 hours by a computer-controlled automatic measuring apparatus. The symptoms of Parkinson's disease were decided on the basis of the criteria of each observation item shown below, and the total of the points was used as the score of each animal.
The effect was decided by comparing average scores of the symptoms of Parkinson's disease in 4 animals per group between the test compound-administered group and the solvent-administered group (significance test: Sign-Wilcoxon test). The spontaneous locomotor activity was also decided by comparison between the test compound-administered group and the solvent-administered group.

male SD rats = test: Learned helplessness (LH) model; type: in vivo; details: for escape response: IES-loaded rats, 2 mg/kg orally 1 hour before FR1; for intertrial responses (index of psychomotor stimulant action): versus electric shock loaded control group, 2 mg/kg orally
Method: As test animals, 10 to 15 male SD rats (220 to 320 g in body weight, 7 week age, Charles River Japan, Inc., Atsugi) per group were used. During the preliminary feeding period, the animals were bred to be allowed to freely have feed (CRF-1; Oriental Yeast Co., Ltd, Tokyo) and water (tap water) in an animal room at a room temperature of 22 to 24° C. and a humidity of 50 to 60%. Each test compound was orally administered in a dose of 2 mg/kg 1 hour before RF1 (refer to the contents described below) on the second day of the test.
A shuttle box apparatus (TK-401S; produced by UNICOM, Chiba) was used as a learning experimental apparatus. On the first day, the shuttle box was divided into two rooms by setting a partition at its center, and one rat was put in each of the rooms. […] Although each rat was put in the shuttle box for 50 minutes, the charging time of inescapable shock (IES) was set to 25 minutes by computer control using a random duration time (10 to 90 seconds) and random on-off and off-on (10 to 90 seconds).
On the second day, a shuttle box test was carried out by the method of Maier [J. Comp. Physiol. Psychol., vol. 85, pp. 581-592 (1973)] and the method of Geoffroy and Christensen [Drug Dev. Res., vol. 29, pp. 48-55 (1993)] which were slightly modified. The partition at the center of the shuttle box was removed, and the box was divided into two rooms by a hurdle of 2 cm in height instead of the partition. In the shuttle box test, FRI (an electric shock of 0.6 mA was applied to the rat for 5 seconds unless the rat moved to the other room within 5 seconds after the start of buzzer sounds, and when the rat moved to the other room within 5 seconds after the start of buzzer sounds, the floor shock could be avoided, this operation being carried as one trial and repeated 15 times with an interval of 10 seconds between trials.) was carried out, continuously followed by FR2 (an electric shock of 0.6 mA was applied to the rat for 10 seconds, and then an electric shock of 0.6 mA was applied at intervals of 0.5 second for 10 seconds, this operation being carried out as one trial and repeated 15 times with an interval of 15 seconds between trials). Escape reaction was determined by the escape response calculated by the equation below on the assumption that cases showing two escape latency times of less than 10 seconds in FR2 were regarded as successful escape. Escape response (%)=(Number of trials of successful escape/15)×100
Furthermore, migration (intertrial response %) in the box other than the escape reaction observed during a period between trials (resting time) was used as an index of psychomotor stimulant action, the intertrial response being calculated by the following equation. […]

[3] = test compound 10^−7 mol/L, 3H-CGS 21680 binding, rat corpus striatum
[4] = from total score of test group and control group, 10 mg/kg orally

T1 sequence (P30543 whole entry): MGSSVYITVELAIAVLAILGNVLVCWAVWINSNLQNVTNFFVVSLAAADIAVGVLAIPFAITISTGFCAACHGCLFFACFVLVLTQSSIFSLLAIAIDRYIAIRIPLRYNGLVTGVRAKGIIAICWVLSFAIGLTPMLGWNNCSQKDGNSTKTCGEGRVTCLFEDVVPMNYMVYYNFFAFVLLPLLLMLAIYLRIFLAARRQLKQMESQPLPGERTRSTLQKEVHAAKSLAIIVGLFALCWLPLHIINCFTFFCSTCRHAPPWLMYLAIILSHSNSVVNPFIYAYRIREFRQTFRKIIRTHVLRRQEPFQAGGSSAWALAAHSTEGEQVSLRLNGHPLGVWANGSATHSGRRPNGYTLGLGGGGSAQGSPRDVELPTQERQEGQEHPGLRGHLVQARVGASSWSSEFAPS

Molecule | A2A Receptor inhibition rate (%) at 10^−7 mol/L (adenosine A2A receptor; [3]) | Number of animals showing remission ([1]; cases with catalepsy score of 4 points or less in 10 cases, 10 mg/kg orally) | Remission ratio (%) [1, 4] | Total score ([1]; 10 mg/kg orally) | immobility time (male ddY mice) | inhibition at 0.1 µM (adenosine A2A receptor; [3]) | effect in the common marmoset MPTP-treated Parkinson's disease model [2] | escape response (male SD rats) | intertrial responses (index of psychomotor stimulant action) (male SD rats) | inhibition at 0.1 µM (adenosine A2A receptor) | inhibition in vivo at 10 mg/kg [1] | inhibition in vivo at 10 mg/kg [1, 4]
5-Amino-2-(2-furyl)[1,2,4]triazolo[1,5-c]pyrimidine-7-carboxylic acid (1,2,3,4-tetrahydroisoquinolyl)amide [Compound 94] | 95% | 10 | 90% | 5 | significant effect of decreasing the immobility time |  |  |  |  |  |  | 
Nc1nc(C2CCN(CC3CC3)CC2)cc2nc(-c3ccco3)nn12 [Compound 71, 5-Amino-7-[1-(cyclopropylmethyl)piperidin-4-yl]-2-(2-furyl)-[1,2,4]triazolo[1,5-c]pyrimidine] |  |  |  |  | significant effect of decreasing the immobility time | 87% | effective | significantly recover a reduced escape response | no difference |  |  | 
CC(C)(O)CCN1CC=C(c2cc3nc(-c4ccco4)nn3c(N)n2)CC1 [Compound 76, 5-Amino-7-[1-(3-methyl-3-hydroxybutyl)-1,2,3,6-tetrahydro-pyridin-4-yl]-2-(2-furyl)[1,2,4]triazolo[1,5-c]pyrimidine] |  |  |  | 5 |  |  | effective |  |  | 72% | 80% | 
Nc1nc(C(=O)NCc2cccnc2)cc2nc(-c3ccco3)nn12 [Compound 83, 5-Amino-2-(2-furyl) [1,2,4]triazolo[1,5-c]pyrimidine-7-carboxylic acid (3-pyridylmethyl)amide] |  |  |  | 2 | significant effect of decreasing the immobility time |  |  | significantly recover a reduced escape response | no difference |  |  | 96%
CN(CCc1ccccn1)C(=O)c1cc2nc(-c3ccco3)nn2c(N)n1 [Compound 85, 5-Amino-2-(2-furyl)[1,2,4]triazolo[1,5-c]pyrimidine-7-carboxylic acid {N-[2-(2-pyridyl)ethyl]-N-methyl}amide] |  |  |  | 3 |  | 70% | effective |  |  |  |  | 94%
CC(C)NC(=O)c1cc2nc(-c3ccco3)nn2c(N)n1 [Compound 89, 5-Amino-2-(2-furyl) [1,2,4]triazolo[1,5-c]pyrimidine-7-carboxylic acid isopropylamide] |  |  |  | 8 | significant effect of decreasing the immobility time | 89% |  |  |  |  |  | 84%

From US20060058320A1, “[1,2,4] Triazolo[1,5-c]pyrimidine derivatives” (KYOWA HAKKO KOGYO CO., LTD., priority 2002, published 2006)
